What all share (assay): kinase panel
Format in all cases: biochemical

Assay [1] concerns the target KDR(h) (Homo sapiens, UniProt P35968). An outline of the steps:
(§1)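 Three compounds in the series were profiled against a panel of 231 kinases, and activity is reported as % inhibition. For one compound, a subset of 98 kinases was selected on the basis of its structural similarity to another series member.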

Assay [2] has as its target Fms(h) (Homo sapiens, UniProt P07333). In short, it runs like this:
as §1

Assay [3] deals with PKBα(h) (Homo sapiens, UniProt P31749). An outline of the steps: as §1
Assay [4] deals with CDK9/cyclin T1(h) (Homo sapiens, UniProt P50750). In short, it runs like this:
as §1

For assay [5], the target named is T1, SAPK4(h) (Homo sapiens, UniProt O15264).
T1 sequence (O15264 1-365): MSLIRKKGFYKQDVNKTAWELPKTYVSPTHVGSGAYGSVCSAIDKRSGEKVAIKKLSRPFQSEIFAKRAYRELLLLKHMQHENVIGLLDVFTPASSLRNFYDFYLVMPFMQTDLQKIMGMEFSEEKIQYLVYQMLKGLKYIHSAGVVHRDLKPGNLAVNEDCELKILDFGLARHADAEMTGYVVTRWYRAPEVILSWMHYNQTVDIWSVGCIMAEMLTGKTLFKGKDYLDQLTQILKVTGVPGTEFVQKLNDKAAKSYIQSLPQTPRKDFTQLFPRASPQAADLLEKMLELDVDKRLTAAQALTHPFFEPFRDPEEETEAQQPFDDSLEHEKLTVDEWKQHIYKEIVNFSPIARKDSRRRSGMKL
In short, it runs like this: as §1

For assay [6], the target named is GSK3α(h) (Homo sapiens, UniProt P49840). In short, it runs like this:
as §1

For assay [7], the target named is mTOR(h) (Homo sapiens, UniProt P42345). An outline of the steps:
as §1

The target of assay [8] is TrkB(h) (Homo sapiens, UniProt Q16620). In short, it runs like this:
as §1

The target in assay [9] is T2, PDK1(h) (Homo sapiens, UniProt O15530).
T2 sequence (O15530 1-556): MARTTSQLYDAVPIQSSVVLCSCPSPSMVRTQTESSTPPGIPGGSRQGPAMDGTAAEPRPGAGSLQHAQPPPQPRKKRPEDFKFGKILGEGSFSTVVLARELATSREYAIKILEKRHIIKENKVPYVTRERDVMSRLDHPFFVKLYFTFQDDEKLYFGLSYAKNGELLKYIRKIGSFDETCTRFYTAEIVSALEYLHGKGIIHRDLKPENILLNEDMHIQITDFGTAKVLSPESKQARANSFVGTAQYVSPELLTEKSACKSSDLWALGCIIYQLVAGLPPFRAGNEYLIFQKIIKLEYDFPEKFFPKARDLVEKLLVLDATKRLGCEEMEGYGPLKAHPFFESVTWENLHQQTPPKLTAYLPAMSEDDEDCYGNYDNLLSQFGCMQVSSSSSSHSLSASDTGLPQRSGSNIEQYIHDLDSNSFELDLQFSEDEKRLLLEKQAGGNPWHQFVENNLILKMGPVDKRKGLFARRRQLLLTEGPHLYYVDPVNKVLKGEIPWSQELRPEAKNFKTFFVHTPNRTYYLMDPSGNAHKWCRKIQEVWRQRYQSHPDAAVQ
In short, it runs like this:
as §1

For assay [10], the target named is PAK2(h) (Homo sapiens, UniProt Q13177). In short, it runs like this: as §1
Assay [11] addresses CLK2(h) (Homo sapiens, UniProt P49760). An outline of the steps: as §1
Assay [12] addresses T3, Aurora-A(h) (Homo sapiens, UniProt O14965).
T3 sequence (O14965 1-403): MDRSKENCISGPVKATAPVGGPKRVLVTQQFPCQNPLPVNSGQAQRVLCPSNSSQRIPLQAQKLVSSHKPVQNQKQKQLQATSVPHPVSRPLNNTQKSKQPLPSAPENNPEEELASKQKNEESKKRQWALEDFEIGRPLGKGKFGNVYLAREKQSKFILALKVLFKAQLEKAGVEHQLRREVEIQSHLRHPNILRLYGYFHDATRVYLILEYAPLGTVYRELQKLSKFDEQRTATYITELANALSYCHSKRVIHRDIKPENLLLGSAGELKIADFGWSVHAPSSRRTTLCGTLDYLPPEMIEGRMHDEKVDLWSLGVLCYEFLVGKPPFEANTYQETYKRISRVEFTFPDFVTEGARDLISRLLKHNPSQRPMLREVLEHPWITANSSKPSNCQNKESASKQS
An outline of the steps:
as §1

Assay [13] deals with GSK3β(h) (Homo sapiens, UniProt P49841). An outline of the steps:
as §1

Assay [14] concerns the target LIMK1(h) (Homo sapiens, UniProt P53667). In short, it runs like this: as §1

KDR(h), sequence (P35968 20-1356): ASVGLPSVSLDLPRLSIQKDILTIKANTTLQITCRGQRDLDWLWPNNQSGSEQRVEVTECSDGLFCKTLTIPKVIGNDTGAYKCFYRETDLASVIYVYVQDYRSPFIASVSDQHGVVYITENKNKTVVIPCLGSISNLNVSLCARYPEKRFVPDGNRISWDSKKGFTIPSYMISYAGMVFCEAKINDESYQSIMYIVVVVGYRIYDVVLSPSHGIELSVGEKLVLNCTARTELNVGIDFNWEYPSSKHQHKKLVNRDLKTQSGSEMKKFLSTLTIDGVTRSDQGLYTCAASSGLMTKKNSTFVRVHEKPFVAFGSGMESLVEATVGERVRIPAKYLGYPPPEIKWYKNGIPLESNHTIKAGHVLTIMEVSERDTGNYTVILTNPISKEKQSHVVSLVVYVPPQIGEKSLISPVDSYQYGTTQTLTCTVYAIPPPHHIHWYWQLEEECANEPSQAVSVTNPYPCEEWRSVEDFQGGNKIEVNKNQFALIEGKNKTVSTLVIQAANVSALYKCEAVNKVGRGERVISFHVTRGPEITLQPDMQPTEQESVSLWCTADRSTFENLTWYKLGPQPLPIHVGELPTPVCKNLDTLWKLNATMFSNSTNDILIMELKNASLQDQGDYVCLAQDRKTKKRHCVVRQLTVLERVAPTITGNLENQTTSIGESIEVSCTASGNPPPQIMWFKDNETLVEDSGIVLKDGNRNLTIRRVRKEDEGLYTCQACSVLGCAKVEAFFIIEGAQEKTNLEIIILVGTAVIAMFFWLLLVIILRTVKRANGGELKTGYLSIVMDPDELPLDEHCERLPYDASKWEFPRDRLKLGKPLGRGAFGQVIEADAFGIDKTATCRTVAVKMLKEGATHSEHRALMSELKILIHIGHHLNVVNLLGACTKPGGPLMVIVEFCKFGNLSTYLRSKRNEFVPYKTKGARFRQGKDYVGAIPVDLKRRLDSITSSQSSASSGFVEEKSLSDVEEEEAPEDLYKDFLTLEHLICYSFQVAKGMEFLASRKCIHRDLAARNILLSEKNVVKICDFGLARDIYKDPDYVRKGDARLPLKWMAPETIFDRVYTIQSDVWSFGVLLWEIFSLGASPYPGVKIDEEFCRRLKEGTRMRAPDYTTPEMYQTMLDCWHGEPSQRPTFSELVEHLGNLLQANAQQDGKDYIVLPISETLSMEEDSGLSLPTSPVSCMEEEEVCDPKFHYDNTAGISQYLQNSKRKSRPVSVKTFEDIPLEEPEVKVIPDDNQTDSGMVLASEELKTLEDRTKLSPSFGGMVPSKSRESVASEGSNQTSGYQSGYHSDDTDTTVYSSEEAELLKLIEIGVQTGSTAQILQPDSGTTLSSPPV
CDK9/cyclin T1(h), sequence (P50750 whole entry): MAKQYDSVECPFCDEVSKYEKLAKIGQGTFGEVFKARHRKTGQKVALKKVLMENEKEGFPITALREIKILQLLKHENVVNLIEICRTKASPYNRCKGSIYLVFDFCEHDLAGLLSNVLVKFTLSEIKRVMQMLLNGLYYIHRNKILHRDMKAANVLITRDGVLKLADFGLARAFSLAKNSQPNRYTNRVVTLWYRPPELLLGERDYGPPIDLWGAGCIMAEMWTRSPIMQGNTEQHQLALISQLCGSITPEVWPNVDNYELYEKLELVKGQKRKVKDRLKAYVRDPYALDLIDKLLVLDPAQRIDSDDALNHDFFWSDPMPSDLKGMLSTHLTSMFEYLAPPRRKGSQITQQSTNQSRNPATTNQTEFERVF
CDK9/cyclin T1(h), sequence (O60563 whole entry partner): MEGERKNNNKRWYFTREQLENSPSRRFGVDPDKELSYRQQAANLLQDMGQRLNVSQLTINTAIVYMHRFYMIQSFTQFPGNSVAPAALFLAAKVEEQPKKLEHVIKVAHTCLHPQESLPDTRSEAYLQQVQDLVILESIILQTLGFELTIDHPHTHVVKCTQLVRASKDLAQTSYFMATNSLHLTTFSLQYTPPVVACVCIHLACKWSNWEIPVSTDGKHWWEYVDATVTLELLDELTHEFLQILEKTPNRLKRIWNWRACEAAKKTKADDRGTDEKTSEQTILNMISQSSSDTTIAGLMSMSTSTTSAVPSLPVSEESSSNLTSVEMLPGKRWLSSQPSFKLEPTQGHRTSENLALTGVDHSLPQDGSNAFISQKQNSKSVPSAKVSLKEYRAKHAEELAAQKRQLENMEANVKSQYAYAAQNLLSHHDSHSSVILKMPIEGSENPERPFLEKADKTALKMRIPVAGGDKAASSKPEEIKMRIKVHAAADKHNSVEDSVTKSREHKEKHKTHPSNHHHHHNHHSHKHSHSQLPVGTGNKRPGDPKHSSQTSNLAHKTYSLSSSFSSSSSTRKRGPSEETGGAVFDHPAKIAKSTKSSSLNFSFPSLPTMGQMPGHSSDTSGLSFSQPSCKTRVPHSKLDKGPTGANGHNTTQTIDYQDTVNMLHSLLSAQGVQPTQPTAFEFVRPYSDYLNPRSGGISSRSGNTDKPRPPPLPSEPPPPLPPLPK
LIMK1(h), sequence (P53667 whole entry): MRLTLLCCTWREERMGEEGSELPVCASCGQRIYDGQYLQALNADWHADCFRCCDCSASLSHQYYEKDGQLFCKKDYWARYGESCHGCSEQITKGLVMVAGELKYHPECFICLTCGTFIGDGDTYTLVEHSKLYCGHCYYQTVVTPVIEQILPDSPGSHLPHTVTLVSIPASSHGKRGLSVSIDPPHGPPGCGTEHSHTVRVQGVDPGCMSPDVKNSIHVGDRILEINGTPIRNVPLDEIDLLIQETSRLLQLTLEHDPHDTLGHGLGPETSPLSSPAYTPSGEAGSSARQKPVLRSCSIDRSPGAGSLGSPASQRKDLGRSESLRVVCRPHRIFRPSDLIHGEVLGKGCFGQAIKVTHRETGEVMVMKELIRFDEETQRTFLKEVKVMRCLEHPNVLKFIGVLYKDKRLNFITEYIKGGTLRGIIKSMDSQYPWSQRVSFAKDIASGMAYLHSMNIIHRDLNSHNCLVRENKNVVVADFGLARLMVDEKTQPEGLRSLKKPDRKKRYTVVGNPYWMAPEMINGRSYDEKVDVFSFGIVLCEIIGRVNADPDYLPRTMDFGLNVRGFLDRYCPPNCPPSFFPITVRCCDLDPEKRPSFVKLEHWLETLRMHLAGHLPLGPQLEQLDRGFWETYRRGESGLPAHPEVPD
PKBα(h), sequence (P31749 whole entry): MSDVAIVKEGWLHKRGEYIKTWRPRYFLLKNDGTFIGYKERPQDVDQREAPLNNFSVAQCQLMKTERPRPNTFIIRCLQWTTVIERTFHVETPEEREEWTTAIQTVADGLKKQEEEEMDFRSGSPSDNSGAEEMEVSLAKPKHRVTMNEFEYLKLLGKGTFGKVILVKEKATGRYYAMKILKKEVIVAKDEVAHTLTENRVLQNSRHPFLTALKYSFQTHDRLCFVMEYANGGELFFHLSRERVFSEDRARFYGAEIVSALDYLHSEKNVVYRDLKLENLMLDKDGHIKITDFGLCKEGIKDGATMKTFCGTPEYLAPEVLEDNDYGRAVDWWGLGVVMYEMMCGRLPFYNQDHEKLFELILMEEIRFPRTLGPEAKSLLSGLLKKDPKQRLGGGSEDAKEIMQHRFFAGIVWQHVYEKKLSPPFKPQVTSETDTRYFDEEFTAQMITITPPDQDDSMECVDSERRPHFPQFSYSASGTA
GSK3β(h), sequence (P49841 whole entry): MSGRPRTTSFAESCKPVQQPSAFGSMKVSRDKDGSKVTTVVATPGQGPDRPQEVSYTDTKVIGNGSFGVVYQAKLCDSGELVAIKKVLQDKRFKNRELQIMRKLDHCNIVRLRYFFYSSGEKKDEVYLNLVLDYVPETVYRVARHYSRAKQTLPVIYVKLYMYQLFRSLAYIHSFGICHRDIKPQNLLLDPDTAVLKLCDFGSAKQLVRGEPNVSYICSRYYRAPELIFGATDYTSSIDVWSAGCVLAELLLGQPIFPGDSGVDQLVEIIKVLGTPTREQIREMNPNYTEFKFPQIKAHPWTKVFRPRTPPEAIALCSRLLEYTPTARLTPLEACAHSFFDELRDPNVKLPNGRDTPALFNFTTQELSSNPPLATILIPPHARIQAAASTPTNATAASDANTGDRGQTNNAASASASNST
GSK3α(h), sequence (P49840 whole entry): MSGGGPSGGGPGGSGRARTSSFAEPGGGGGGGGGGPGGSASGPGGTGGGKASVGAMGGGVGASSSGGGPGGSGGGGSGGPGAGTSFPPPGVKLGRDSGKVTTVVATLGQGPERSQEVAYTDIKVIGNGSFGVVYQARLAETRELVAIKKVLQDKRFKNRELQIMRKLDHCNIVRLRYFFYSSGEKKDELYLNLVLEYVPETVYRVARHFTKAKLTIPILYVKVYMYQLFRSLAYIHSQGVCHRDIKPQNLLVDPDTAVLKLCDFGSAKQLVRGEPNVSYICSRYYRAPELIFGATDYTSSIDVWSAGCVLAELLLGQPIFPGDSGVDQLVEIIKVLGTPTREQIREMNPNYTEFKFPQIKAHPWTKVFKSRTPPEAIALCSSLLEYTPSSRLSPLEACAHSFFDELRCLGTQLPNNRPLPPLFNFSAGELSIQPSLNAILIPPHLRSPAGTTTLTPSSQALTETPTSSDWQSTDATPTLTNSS
PAK2(h), sequence (Q13177 whole entry): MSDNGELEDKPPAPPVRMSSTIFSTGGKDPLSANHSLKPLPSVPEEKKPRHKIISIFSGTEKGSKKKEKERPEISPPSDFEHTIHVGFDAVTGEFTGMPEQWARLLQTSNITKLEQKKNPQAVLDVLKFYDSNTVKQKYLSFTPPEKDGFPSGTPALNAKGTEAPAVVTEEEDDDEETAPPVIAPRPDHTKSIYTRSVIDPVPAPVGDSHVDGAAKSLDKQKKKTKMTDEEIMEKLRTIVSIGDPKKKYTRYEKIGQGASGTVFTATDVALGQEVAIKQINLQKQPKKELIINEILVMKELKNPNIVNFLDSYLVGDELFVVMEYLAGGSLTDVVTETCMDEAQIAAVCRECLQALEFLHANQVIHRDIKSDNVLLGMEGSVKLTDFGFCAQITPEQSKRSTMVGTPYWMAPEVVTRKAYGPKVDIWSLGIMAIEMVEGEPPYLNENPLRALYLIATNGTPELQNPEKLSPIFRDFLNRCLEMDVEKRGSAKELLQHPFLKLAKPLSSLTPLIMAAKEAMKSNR

As to `Nc1n[nH]c2ccc(-c3ccnc4[nH]c(-c5ccccc5)cc34)cc12` [Compound 4], the inhibition (in general, the change of the read-out against control, counted positive when it falls) at 1 µM was found to be 93% in [1]; 91% in assay [2]; 8% in assay [3]; 98% in assay [4]; 87% in [5]; 95% in [6]. Besides, the inhibition at 1 µM is 10% in [7]; 65% in [8]; 25% in [9]; 18% in [10]; 97% in assay [11]; 88% in assay [12]. Further, the inhibition at 1 µM was determined as 92% in assay [13] and 58% in assay [14].
For `Nc1n[nH]c2ccc(-c3ccnc4[nH]c(-c5cccc(OCc6ccccc6)c5)cc34)cc12` [Compound 5r [SU1261]], the inhibition at 1 µM in [1] amounted to 42%; in assay [2], 58%; in [3], 10%; in assay [4], 98%; in assay [5] it was 18%; in assay [6], 74%. In addition, the inhibition at 1 µM in assay [7] was 8%; in assay [8] it was -37%; in [9], 7%; in assay [10], 1%; in assay [11], 80%; in [12], 52%. The inhibition at 1 µM in assay [13] stood at 57%; in assay [14], 21%.
In the case of `Nc1n[nH]c2ccc(-c3ccnc4[nH]c(-c5ccnc(OCc6ccccc6)c5)cc34)cc12` [Compound 6g [SU1349]], the inhibition at 1 µM in assay [1] amounted to 26%; in assay [2], 10%; in [3], 4%; in [4], 99%; in [5] it was 10%; in [6], 27%. Besides, the inhibition at 1 µM in assay [7] is 0%; in [8] it was -34%; in [9], 18%; in assay [10] it was 0%; in assay [11] it was 68%; in assay [12], 36%. In addition, the inhibition at 1 µM was 5% in assay [13] and 15% in [14].

(Values after article PMC11314561, “Design and Synthesis of Novel Aminoindazole-pyrrolo[2,3-b]pyridine Inhibitors of IKKα That Selectively Perturb Cellular Non-Canonical NF-κB Signalling” (Molecules, 2024).)
